Source: the kinase profiling compilation of Christmann-Franck et al. (2016)
Blank lines part the entries; values can stand above or below the molecule they belong to.

Columns and labels:
Assay in all cases: radiometric filter-binding kinase assay
CAMKK2 (human) = CAMKK2 (human) (UniProt Q96RR4)
MST4 (human) = MST4 (human) (UniProt Q9P289)
PHKG1 (human) = PHKG1 (human) (UniProt Q16816)
CDK2 CCNA2 (human) = CDK2 CCNA2 (human) (UniProt P20248+P24941)
YES1 (human) = YES1 (human) (UniProt P07947)
MAP3K11 (human) = MAP3K11 (human) (UniProt Q16584)
AURKB (human) = AURKB (human) (UniProt Q96GD4)
PAK4 (human) = PAK4 (human) (UniProt O96013)
CaMK1 (human) = CaMK1 (human) (UniProt Q14012)
MAP2K1 (human) = MAP2K1 (human) (UniProt Q02750)
DYRK1A (human) = DYRK1A (human) (UniProt Q13627)
[1] = test system: AKT2 (human), P31751 [S474D]
MAP3K9 (human) = MAP3K9 (human) (UniProt P80192)
MAPK10 (human) = MAPK10 (human) (UniProt P53779)
NUAK1 (human) = NUAK1 (human) (UniProt O60285)
PIM2 (human) = PIM2 (human) (UniProt Q9P1W9)
RIPK2 (human) = RIPK2 (human) (UniProt O43353)
INSRR (human) = INSRR (human) (UniProt P14616)
IGF1R (human) = IGF1R (human) (UniProt P08069); conditions: compound 0.1 µM
MAPK13 (human) = MAPK13 (human) (UniProt O15264)
MINK1 (human) = MINK1 (human) (UniProt Q8N4C8)
MARK4 (human) = MARK4 (human) (UniProt Q96L34)
PRKCZ (human) = PRKCZ (human) (UniProt Q05513)
INSR (human) = INSR (human) (UniProt P06213)
MARK3 (human) = MARK3 (human) (UniProt P27448)
CSNK2A1 (human) = CSNK2A1 (human) (UniProt P68400)
JAK2 JH1 JH2 (human) = JAK2 JH1 JH2 (human) (UniProt O60674)
PRKAA1 or PRKAA2 (rat) = conditions: compound 0.1 µM; accession and sequence are those of the human protein
MKNK1 (human) = MKNK1 (human) (UniProt Q9BUB5)
PRKACA (human) = PRKACA (human) (UniProt P17612)
EPHB3 (human) = EPHB3 (human) (UniProt P54753)
NTRK1 (human) = NTRK1 (human) (UniProt P04629)
CHEK1 (human) = CHEK1 (human) (UniProt O14757)
LCK (mouse) = conditions: accession and sequence are those of the human protein
SRC (human) = SRC (human) (UniProt P12931)
SYK (human) = SYK (human) (UniProt P43405)

PAK4 (human), sequence (O96013 whole entry, looked up): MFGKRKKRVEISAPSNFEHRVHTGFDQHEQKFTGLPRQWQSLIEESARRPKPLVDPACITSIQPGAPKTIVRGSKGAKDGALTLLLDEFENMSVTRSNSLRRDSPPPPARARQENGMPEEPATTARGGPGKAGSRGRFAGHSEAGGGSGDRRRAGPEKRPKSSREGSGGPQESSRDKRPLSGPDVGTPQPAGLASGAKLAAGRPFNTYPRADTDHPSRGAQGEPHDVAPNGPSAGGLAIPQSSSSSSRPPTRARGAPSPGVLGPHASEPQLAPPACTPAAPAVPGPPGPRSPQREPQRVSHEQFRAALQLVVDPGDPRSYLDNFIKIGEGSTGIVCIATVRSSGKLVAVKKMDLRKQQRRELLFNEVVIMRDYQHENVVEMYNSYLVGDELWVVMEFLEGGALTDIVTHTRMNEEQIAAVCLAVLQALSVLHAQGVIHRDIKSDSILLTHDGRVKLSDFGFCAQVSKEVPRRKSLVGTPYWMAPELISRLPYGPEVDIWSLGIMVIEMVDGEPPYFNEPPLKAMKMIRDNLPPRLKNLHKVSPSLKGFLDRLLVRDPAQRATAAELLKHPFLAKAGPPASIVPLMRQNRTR
CSNK2A1 (human), sequence (P68400 whole entry, looked up): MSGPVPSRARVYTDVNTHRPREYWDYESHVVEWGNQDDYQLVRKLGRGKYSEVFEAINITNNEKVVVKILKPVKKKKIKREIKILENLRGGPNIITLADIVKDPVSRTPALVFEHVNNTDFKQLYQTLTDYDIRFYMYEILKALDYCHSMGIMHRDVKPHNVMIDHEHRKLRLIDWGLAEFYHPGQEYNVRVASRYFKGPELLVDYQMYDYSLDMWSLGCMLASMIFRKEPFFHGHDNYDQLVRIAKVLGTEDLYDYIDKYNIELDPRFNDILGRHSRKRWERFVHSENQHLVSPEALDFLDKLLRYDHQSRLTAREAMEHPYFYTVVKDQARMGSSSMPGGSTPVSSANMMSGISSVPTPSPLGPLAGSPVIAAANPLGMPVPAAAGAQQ
NUAK1 (human), sequence (O60285 whole entry, looked up): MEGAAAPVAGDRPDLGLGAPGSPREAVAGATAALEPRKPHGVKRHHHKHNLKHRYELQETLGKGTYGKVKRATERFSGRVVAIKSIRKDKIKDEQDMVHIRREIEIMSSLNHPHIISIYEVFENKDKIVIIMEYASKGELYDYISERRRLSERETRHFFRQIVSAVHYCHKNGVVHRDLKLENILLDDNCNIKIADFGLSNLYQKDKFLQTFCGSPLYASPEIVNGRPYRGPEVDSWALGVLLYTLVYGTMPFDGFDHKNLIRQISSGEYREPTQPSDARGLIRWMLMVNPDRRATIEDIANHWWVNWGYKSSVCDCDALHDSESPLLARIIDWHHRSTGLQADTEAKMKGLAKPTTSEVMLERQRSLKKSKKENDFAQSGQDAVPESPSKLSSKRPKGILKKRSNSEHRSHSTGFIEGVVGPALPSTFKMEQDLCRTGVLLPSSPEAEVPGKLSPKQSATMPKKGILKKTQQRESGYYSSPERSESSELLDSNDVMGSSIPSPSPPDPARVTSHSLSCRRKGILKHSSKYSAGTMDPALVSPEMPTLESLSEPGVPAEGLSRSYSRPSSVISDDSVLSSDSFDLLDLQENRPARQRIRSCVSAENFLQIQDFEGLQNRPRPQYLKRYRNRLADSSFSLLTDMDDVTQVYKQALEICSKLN
AKT2 (human), P31751 [S474D], sequence (P31751 whole entry S474D, looked up): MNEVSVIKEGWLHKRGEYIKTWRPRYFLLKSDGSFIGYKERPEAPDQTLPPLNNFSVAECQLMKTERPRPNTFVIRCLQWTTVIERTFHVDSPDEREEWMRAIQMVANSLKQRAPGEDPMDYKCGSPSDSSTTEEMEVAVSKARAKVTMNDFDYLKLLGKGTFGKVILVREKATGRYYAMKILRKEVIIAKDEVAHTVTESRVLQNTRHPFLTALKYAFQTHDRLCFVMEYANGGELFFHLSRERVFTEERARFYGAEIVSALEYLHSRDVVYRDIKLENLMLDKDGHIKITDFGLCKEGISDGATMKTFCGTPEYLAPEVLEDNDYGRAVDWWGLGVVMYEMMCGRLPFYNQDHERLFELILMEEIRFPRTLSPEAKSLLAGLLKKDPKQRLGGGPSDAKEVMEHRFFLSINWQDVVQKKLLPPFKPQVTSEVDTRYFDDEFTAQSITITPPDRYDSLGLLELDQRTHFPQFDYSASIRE
EPHB3 (human), sequence (P54753 whole entry, looked up): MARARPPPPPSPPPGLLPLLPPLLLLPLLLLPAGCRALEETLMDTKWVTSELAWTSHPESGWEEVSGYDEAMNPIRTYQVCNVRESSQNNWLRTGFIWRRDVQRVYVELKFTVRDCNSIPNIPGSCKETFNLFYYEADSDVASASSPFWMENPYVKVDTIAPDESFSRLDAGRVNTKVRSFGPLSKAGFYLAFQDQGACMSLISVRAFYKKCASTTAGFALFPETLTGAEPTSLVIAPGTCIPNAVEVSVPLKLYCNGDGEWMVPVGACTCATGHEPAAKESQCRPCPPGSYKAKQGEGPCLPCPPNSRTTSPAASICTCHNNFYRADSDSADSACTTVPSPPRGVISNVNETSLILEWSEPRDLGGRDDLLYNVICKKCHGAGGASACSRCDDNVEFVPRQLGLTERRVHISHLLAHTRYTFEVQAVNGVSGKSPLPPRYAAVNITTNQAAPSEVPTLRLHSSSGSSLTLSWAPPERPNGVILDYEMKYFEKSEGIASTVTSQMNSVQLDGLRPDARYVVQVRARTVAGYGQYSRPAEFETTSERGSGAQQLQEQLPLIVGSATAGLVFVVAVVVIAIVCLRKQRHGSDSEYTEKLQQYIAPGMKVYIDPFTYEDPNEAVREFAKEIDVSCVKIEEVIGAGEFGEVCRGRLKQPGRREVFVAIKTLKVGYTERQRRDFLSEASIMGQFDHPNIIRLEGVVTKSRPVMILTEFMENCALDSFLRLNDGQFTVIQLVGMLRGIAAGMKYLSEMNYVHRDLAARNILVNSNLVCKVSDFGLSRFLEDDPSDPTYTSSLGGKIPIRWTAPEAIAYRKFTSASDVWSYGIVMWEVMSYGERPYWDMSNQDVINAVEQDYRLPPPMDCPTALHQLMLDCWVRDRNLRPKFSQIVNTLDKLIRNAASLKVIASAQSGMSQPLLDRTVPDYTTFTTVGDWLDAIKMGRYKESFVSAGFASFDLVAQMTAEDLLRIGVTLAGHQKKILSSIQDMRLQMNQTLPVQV
NTRK1 (human), sequence (P04629 whole entry, looked up): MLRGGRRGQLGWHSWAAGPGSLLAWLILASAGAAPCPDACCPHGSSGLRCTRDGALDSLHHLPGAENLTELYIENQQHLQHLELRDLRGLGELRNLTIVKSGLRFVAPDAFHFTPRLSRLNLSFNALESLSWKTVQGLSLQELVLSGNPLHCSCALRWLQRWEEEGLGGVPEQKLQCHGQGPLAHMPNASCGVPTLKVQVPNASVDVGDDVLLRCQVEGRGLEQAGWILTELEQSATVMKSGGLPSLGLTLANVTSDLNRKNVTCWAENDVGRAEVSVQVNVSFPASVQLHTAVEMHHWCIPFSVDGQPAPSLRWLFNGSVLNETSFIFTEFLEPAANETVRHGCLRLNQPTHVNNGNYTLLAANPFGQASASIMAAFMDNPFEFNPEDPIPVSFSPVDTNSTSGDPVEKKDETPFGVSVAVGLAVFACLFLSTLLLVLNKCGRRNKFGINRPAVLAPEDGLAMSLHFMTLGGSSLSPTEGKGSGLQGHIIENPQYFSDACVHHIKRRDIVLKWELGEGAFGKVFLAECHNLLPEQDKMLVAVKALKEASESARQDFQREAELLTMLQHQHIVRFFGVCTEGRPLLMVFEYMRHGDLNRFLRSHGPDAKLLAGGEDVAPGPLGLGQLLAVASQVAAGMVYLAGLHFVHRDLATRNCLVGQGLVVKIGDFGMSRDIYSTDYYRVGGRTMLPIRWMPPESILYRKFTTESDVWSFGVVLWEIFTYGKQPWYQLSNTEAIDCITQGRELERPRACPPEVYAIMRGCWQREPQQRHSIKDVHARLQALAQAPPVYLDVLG
YES1 (human), sequence (P07947 whole entry, looked up): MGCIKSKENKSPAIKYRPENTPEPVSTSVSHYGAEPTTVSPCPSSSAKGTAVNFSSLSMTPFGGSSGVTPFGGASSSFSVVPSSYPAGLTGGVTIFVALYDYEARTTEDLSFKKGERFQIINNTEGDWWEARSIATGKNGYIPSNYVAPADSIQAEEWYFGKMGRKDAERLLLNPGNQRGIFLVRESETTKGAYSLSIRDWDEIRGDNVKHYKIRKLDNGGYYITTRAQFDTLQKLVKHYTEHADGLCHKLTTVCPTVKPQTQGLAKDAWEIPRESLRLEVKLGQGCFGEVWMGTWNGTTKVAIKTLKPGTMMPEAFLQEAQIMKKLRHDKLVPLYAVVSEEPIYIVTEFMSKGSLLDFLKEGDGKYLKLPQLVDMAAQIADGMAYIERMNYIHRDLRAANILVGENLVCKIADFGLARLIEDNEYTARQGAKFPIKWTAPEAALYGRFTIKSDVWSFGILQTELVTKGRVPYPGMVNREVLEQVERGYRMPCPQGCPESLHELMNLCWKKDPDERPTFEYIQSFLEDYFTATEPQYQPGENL
RIPK2 (human), sequence (O43353 whole entry, looked up): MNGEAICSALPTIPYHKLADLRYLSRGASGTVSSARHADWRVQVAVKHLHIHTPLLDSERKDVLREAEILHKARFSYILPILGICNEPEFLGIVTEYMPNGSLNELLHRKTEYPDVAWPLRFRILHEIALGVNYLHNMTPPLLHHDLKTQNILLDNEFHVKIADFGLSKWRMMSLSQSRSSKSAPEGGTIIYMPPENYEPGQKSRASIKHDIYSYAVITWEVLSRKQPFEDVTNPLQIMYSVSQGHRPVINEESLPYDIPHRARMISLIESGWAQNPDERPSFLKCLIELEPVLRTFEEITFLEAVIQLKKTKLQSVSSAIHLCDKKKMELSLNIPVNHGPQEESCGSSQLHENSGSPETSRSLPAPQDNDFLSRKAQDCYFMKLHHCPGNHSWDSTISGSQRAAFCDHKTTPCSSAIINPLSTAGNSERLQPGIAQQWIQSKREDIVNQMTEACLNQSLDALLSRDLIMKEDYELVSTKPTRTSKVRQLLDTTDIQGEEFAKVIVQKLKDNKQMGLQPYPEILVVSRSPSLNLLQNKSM

residual activity (CAMKK2 (human); compound 0.1 µM): 95%
residual activity (MST4 (human); compound 0.1 µM): 104%
residual activity (PHKG1 (human); compound 0.1 µM): 106%
residual activity (CDK2 CCNA2 (human); compound 0.1 µM): 96%
residual activity (YES1 (human); compound 0.1 µM): 4%
residual activity (MAP3K11 (human); compound 0.1 µM): 85%
residual activity (AURKB (human); compound 0.1 µM): 82%
residual activity (PAK4 (human); compound 0.1 µM): 99%
residual activity (CaMK1 (human); compound 0.1 µM): 106%
residual activity (MAP2K1 (human); compound 0.1 µM): 97%
residual activity (DYRK1A (human); compound 0.1 µM): 94%
residual activity ([1]; compound 0.1 µM): 86%
residual activity (MAP3K9 (human); compound 0.1 µM): 86%
residual activity (MAPK10 (human); compound 0.1 µM): 116%
residual activity (NUAK1 (human); compound 0.1 µM): 95%
residual activity (PIM2 (human); compound 0.1 µM): 105%
residual activity (RIPK2 (human); compound 0.1 µM): 9%
residual activity (INSRR (human); compound 0.1 µM): 123%
residual activity (IGF1R (human)): 97%
residual activity (MAPK13 (human); compound 0.1 µM): 91%
residual activity (MINK1 (human); compound 0.1 µM): 90%
residual activity (MARK4 (human); compound 0.1 µM): 95%
residual activity (PRKCZ (human); compound 0.1 µM): 101%
residual activity (INSR (human); compound 0.1 µM): 90%
residual activity (MARK3 (human); compound 0.1 µM): 99%
residual activity (CSNK2A1 (human); compound 0.1 µM): 112%
residual activity (JAK2 JH1 JH2 (human); compound 0.1 µM): 102%
residual activity (PRKAA1 or PRKAA2 (rat)): 99%
residual activity (MKNK1 (human); compound 0.1 µM): 107%
residual activity (PRKACA (human); compound 0.1 µM): 105%
residual activity (EPHB3 (human); compound 0.1 µM): 89%
residual activity (NTRK1 (human); compound 0.1 µM): 93%
residual activity (CHEK1 (human); compound 0.1 µM): 106%
Structure (SMILES): CN1CCN(CCOc2cc(OC3CCOCC3)c3c(Nc4c(Cl)ccc5c4OCO5)ncnc3c2)CC1

residual activity (CAMKK2 (human); compound 0.01 µM): 105%
residual activity (CAMKK2 (human); compound 0.1 µM): 102%
residual activity (CAMKK2 (human); compound 1.0 µM): 89%
residual activity (MST4 (human); compound 0.01 µM): 100%
residual activity (MST4 (human); compound 0.1 µM): 95%
residual activity (MST4 (human); compound 1.0 µM): 78%
residual activity (PHKG1 (human); compound 0.01 µM): 125%
residual activity (PHKG1 (human); compound 0.1 µM): 104%
residual activity (PHKG1 (human); compound 1.0 µM): 107%
residual activity (CDK2 CCNA2 (human); compound 0.01 µM): 120%
residual activity (CDK2 CCNA2 (human); compound 0.1 µM): 121%
residual activity (CDK2 CCNA2 (human); compound 1.0 µM): 106%
residual activity (YES1 (human); compound 0.01 µM): 34%
residual activity (YES1 (human); compound 0.1 µM): 11%
residual activity (YES1 (human); compound 1.0 µM): 8%
residual activity (MAP3K11 (human); compound 0.01 µM): 105%
residual activity (MAP3K11 (human); compound 0.1 µM): 100%
residual activity (MAP3K11 (human); compound 1.0 µM): 70%
residual activity (AURKB (human); compound 0.01 µM): 93%
residual activity (AURKB (human); compound 0.1 µM): 92%
residual activity (AURKB (human); compound 1.0 µM): 91%
residual activity (PAK4 (human); compound 0.01 µM): 116%
residual activity (PAK4 (human); compound 0.1 µM): 97%
residual activity (PAK4 (human); compound 1.0 µM): 94%
residual activity (LCK (mouse); compound 0.01 µM): 63%
residual activity (LCK (mouse); compound 0.1 µM): 54%
residual activity (LCK (mouse); compound 1.0 µM): 47%
residual activity (CaMK1 (human); compound 0.01 µM): 97%
residual activity (CaMK1 (human); compound 0.1 µM): 90%
residual activity (CaMK1 (human); compound 1.0 µM): 90%
residual activity (MAP2K1 (human); compound 0.01 µM): 107%
residual activity (MAP2K1 (human); compound 0.1 µM): 106%
residual activity (MAP2K1 (human); compound 1.0 µM): 97%
residual activity (SRC (human); compound 0.01 µM): 45%
residual activity (SRC (human); compound 0.1 µM): 9%
residual activity (SRC (human); compound 1.0 µM): 3%
residual activity (DYRK1A (human); compound 0.01 µM): 100%
residual activity (DYRK1A (human); compound 0.1 µM): 95%
residual activity (DYRK1A (human); compound 1.0 µM): 93%
residual activity ([1]; compound 0.01 µM): 83%
residual activity ([1]; compound 0.1 µM): 83%
residual activity ([1]; compound 1.0 µM): 75%
residual activity (MAP3K9 (human); compound 0.01 µM): 101%
residual activity (MAP3K9 (human); compound 0.1 µM): 97%
residual activity (MAP3K9 (human); compound 1.0 µM): 42%
residual activity (MAPK10 (human); compound 0.01 µM): 93%
residual activity (MAPK10 (human); compound 0.1 µM): 77%
residual activity (MAPK10 (human); compound 1.0 µM): 38%
residual activity (NUAK1 (human); compound 0.01 µM): 97%
residual activity (NUAK1 (human); compound 0.1 µM): 93%
residual activity (NUAK1 (human); compound 1.0 µM): 64%
residual activity (PIM2 (human); compound 1.0 µM): 117%
residual activity (SYK (human); compound 0.01 µM): 112%
residual activity (SYK (human); compound 0.1 µM): 104%
residual activity (SYK (human); compound 1.0 µM): 100%
residual activity (RIPK2 (human); compound 0.01 µM): 77%
residual activity (RIPK2 (human); compound 0.1 µM): 37%
residual activity (RIPK2 (human); compound 1.0 µM): 8%
residual activity (INSRR (human); compound 0.01 µM): 113%
residual activity (INSRR (human); compound 0.1 µM): 112%
residual activity (INSRR (human); compound 1.0 µM): 107%
residual activity (MAPK13 (human); compound 0.01 µM): 102%
residual activity (MAPK13 (human); compound 0.1 µM): 97%
residual activity (MAPK13 (human); compound 1.0 µM): 98%
residual activity (MINK1 (human); compound 0.01 µM): 94%
residual activity (MINK1 (human); compound 0.1 µM): 76%
residual activity (MINK1 (human); compound 1.0 µM): 18%
residual activity (MARK4 (human); compound 0.01 µM): 120%
residual activity (MARK4 (human); compound 0.1 µM): 101%
residual activity (MARK4 (human); compound 1.0 µM): 67%
residual activity (PRKCZ (human); compound 0.01 µM): 97%
residual activity (PRKCZ (human); compound 0.1 µM): 104%
residual activity (PRKCZ (human); compound 1.0 µM): 102%
residual activity (INSR (human); compound 0.01 µM): 115%
residual activity (INSR (human); compound 0.1 µM): 106%
residual activity (INSR (human); compound 1.0 µM): 106%
residual activity (MARK3 (human); compound 0.01 µM): 92%
residual activity (MARK3 (human); compound 0.1 µM): 73%
residual activity (MARK3 (human); compound 1.0 µM): 28%
residual activity (CSNK2A1 (human); compound 0.01 µM): 98%
residual activity (CSNK2A1 (human); compound 0.1 µM): 100%
residual activity (CSNK2A1 (human); compound 1.0 µM): 100%
residual activity (JAK2 JH1 JH2 (human); compound 0.01 µM): 99%
residual activity (JAK2 JH1 JH2 (human); compound 0.1 µM): 88%
residual activity (JAK2 JH1 JH2 (human); compound 1.0 µM): 89%
residual activity (MKNK1 (human); compound 0.01 µM): 109%
residual activity (MKNK1 (human); compound 0.1 µM): 116%
residual activity (MKNK1 (human); compound 1.0 µM): 112%
residual activity (PRKACA (human); compound 0.01 µM): 91%
residual activity (PRKACA (human); compound 0.1 µM): 96%
residual activity (PRKACA (human); compound 1.0 µM): 79%
residual activity (EPHB3 (human); compound 0.01 µM): 108%
residual activity (EPHB3 (human); compound 0.1 µM): 61%
residual activity (EPHB3 (human); compound 1.0 µM): 18%
residual activity (NTRK1 (human); compound 0.01 µM): 98%
residual activity (NTRK1 (human); compound 1.0 µM): 89%
residual activity (CHEK1 (human); compound 0.01 µM): 95%
residual activity (CHEK1 (human); compound 0.1 µM): 100%
residual activity (CHEK1 (human); compound 1.0 µM): 86%
Structure (SMILES): COc1ccc(N(C(=O)Nc2c(C)cccc2C)c2cc(Nc3ccc(N4CCN(C)CC4)cc3)ncn2)c(OC)c1
